Results taken from patent US20240382629A1, “HETEROBIVALENT AND HOMOBIVALENT AGENTS TARGETING FIBROBLAST ACTIVATION PROTEIN ALPHA AND/OR PROSTATE-SPECIFIC MEMBRANE ANTIGEN” (The Johns Hopkins University, priority 2021, published 2024).
“And” between values parts separate entries of the source, which are not always exact repeats. Equal entries are not always repeated.

Tested on: U87 tumor
Experiment: Biodistribution ([^18F]JHU1221823), carrier / specific activity study
Type: in vivo, mouse
Details: individual mouse
From the text: Biodistribution of Representative Compounds

[1] = NOD/SCID, U87 tumor, Carrier 700, 60 min post injection
[2] = Nude mice, U87 tumor, Baseline (~5000 mCi/μmol), 60 min post injection
[3] = Nude mice, U87 tumor, Carrier 350 (350 mCi/μmol), 60 min post injection
[4] = Nude mice, U87 tumor, Carrier 700, 60 min post injection
[5] = U87 tumor, Baseline, second block (stands before <NOD/SCID> heading), 60 min post injection

## N#C[C@@H]1CCCN1C(=O)CNC(=O)c1ccnc2ccc(OCCCNC(=O)CCOCCOCCOCCOCCNC(=O)[C@H](CCCCNC(=O)c3ccc([18F])nc3)NC(=O)CN3CCN(CC(=O)O)CCN(CC(=O)O)CCN(CC(=O)O)CC3)cc12 [[^18F]JHU1221823]
[1]
  Liver % ID/g: 2.36 % ID/g
  Lung % ID/g: 3.66 % ID/g
  Muscle % ID/g: 1.99 % ID/g
  Pancreas % ID/g: 13.03 % ID/g
  Salivary gland % ID/g: 11.31 % ID/g
  Small intestine % ID/g: 3.48 % ID/g
  Spleen % ID/g: 1.46 % ID/g
  Stomach % ID/g: 1.64 % ID/g
  Tumor % ID/g: 7.79 % ID/g
[2]
  Bladder % ID/g: 2.02 % ID/g and 2.74 % ID/g
  Blood % ID/g: 10.83 % ID/g and 12.08 % ID/g
  Brain % ID/g: 0.22 % ID/g and 0.24 % ID/g
  Fat % ID/g: 1.10 % ID/g and 0.89 % ID/g
  Femur % ID/g: 1.98 % ID/g and 2.84 % ID/g
  Heart % ID/g: 5.09 % ID/g and 5.98 % ID/g
  Kidney % ID/g: 2.76 % ID/g and 3.06 % ID/g
  Large intestine % ID/g: 1.38 % ID/g and 1.42 % ID/g
  Liver % ID/g: 3.56 % ID/g and 3.06 % ID/g
  Lung % ID/g: 6.48 % ID/g and 7.46 % ID/g
  Muscle % ID/g: 1.44 % ID/g and 2.06 % ID/g
  Pancreas % ID/g: 3.42 % ID/g and 3.30 % ID/g
  Salivary gland % ID/g: 6.35 % ID/g and 7.47 % ID/g
  Small intestine % ID/g: 2.47 % ID/g and 2.93 % ID/g
  Spleen % ID/g: 2.17 % ID/g and 1.96 % ID/g
  Stomach % ID/g: 1.14 % ID/g and 1.32 % ID/g
  Tumor % ID/g: 2.14 % ID/g and 2.52 % ID/g
[3]
  Bladder % ID/g: 1.62 % ID/g and 1.85 % ID/g
  Blood % ID/g: 6.11 % ID/g and 4.56 % ID/g
  Brain % ID/g: 0.16 % ID/g and 0.12 % ID/g
  Fat % ID/g: 0.54 % ID/g and 1.24 % ID/g
  Femur % ID/g: 3.83 % ID/g and 4.47 % ID/g
  Heart % ID/g: 2.83 % ID/g and 2.18 % ID/g
  Kidney % ID/g: 2.25 % ID/g and 1.88 % ID/g
  Large intestine % ID/g: 1.92 % ID/g and 1.61 % ID/g
  Liver % ID/g: 2.06 % ID/g and 1.75 % ID/g
  Lung % ID/g: 3.70 % ID/g and 3.20 % ID/g
  Muscle % ID/g: 2.58 % ID/g and 2.23 % ID/g
  Pancreas % ID/g: 5.80 % ID/g and 6.78 % ID/g
  Salivary gland % ID/g: 10.81 % ID/g and 11.50 % ID/g
  Small intestine % ID/g: 2.29 % ID/g and 2.54 % ID/g
  Spleen % ID/g: 1.45 % ID/g and 1.12 % ID/g
  Stomach % ID/g: 1.60 % ID/g and 1.53 % ID/g
  Tumor % ID/g: 2.01 % ID/g and 2.53 % ID/g
[4]
  Bladder % ID/g: 2.15 % ID/g and 2.30 % ID/g
  Blood % ID/g: 10.55 % ID/g and 9.33 % ID/g
  Brain % ID/g: 0.21 % ID/g and 0.19 % ID/g
  Fat % ID/g: 0.41 % ID/g and 0.56 % ID/g
  Femur % ID/g: 2.93 % ID/g and 3.18 % ID/g
  Heart % ID/g: 4.92 % ID/g and 4.38 % ID/g
  Kidney % ID/g: 2.54 % ID/g and 2.52 % ID/g
  Large intestine % ID/g: 1.45 % ID/g and 1.79 % ID/g
  Liver % ID/g: 2.76 % ID/g and 2.85 % ID/g
  Lung % ID/g: 6.05 % ID/g and 5.08 % ID/g
  Muscle % ID/g: 2.06 % ID/g and 2.07 % ID/g
  Pancreas % ID/g: 3.40 % ID/g and 4.43 % ID/g
  Salivary gland % ID/g: 9.08 % ID/g and 7.18 % ID/g
  Small intestine % ID/g: 2.37 % ID/g and 1.98 % ID/g
  Spleen % ID/g: 1.75 % ID/g and 1.70 % ID/g
  Stomach % ID/g: 1.18 % ID/g and 1.57 % ID/g
  Tumor % ID/g: 1.81 % ID/g and 2.22 % ID/g
[5]
  Bladder % ID/g: 3.22 % ID/g and 10.62 % ID/g
  Blood % ID/g: 11.98 % ID/g and 10.01 % ID/g
  Brain % ID/g: 0.23 % ID/g and 0.21 % ID/g
  Fat % ID/g: 0.53 % ID/g and 0.71 % ID/g
  Femur % ID/g: 1.95 % ID/g and 2.78 % ID/g
  Heart % ID/g: 7.41 % ID/g and 6.48 % ID/g
  Kidney % ID/g: 3.14 % ID/g and 3.67 % ID/g
  Large intestine % ID/g: 1.66 % ID/g and 2.70 % ID/g
  Liver % ID/g: 4.04 % ID/g and 4.72 % ID/g
  Lung % ID/g: 7.27 % ID/g and 6.79 % ID/g
  Muscle % ID/g: 1.14 % ID/g and 2.13 % ID/g
  Pancreas % ID/g: 6.82 % ID/g and 9.52 % ID/g
  Salivary gland % ID/g: 11.69 % ID/g and 12.09 % ID/g
  Small intestine % ID/g: 3.79 % ID/g and 3.54 % ID/g
  Spleen % ID/g: 2.33 % ID/g and 1.99 % ID/g
  Stomach % ID/g: 1.66 % ID/g and 1.97 % ID/g
  Tumor % ID/g: 1.17 % ID/g and 5.00 % ID/g
Carrier not given
  Bladder % ID/g: 6.41 % ID/g and 2.64 % ID/g
  Blood % ID/g: 9.28 % ID/g and 9.80 % ID/g
  Brain % ID/g: 0.23 % ID/g and 0.22 % ID/g
  Fat % ID/g: 0.47 % ID/g and 1.68 % ID/g
  Femur % ID/g: 2.55 % ID/g and 3.11 % ID/g
  Heart % ID/g: 4.31 % ID/g and 4.98 % ID/g
  Kidney % ID/g: 2.70 % ID/g and 2.77 % ID/g
  Large intestine % ID/g: 1.29 % ID/g and 1.69 % ID/g
  Liver % ID/g: 2.68 % ID/g and 3.29 % ID/g
  Lung % ID/g: 5.58 % ID/g and 5.91 % ID/g
  Muscle % ID/g: 1.79 % ID/g and 1.78 % ID/g
  Pancreas % ID/g: 1.62 % ID/g and 2.66 % ID/g
  Salivary gland % ID/g: 7.44 % ID/g and 6.43 % ID/g
  Small intestine % ID/g: 2.59 % ID/g and 3.46 % ID/g
  Spleen % ID/g: 1.85 % ID/g and 2.43 % ID/g
  Stomach % ID/g: 0.84 % ID/g and 1.45 % ID/g
  Tumor % ID/g: 4.35 % ID/g and 7.0+ % ID/g
